Reference: patent US11026936B2, “Piperidinyl-propanone derivatives” (Merck Patent GmbH, priority 2016, dated 2021)
pIC50, pKd: −log10 of the molar value.

What was measured:
PDHK2 = PDHK2 (Homo sapiens (Human), UniProt Q15119); assay: Biochemical activity testing of PDHK2: PDC inactivation assay; details: human rec PDHK2, PDC from porcine heart, ATP 5 μM; read-out: IC50 PDHK2 (enzyme assay)
Excerpt: Biochemical Activity Testing of PDHK2: PDC Inactivation Assay
The biochemical activity assay for PDHK2 is based on the inactivation of PDC through phosphorylation by PDHK2. The assay is run in two steps: the enzymatic PDHK2 reaction in which isolated PDC is phosphorylated by PDHK2 with ATP as co-substrate and the PDC activity assay in which pyruvate and NAD are converted to acetyl-CoA and NADH. The PDC activity correlates to the increase in NADH and thereby is detectable directly via the increasing fluorescence signal (Exc 340 nm, Em 450 nm). Inhibition of PDHK2 results in a lower phosphorylation status and thereby a less decrease in activity of PDC and a stronger increase in NADH fluorescence signal.
The PDC inactivation assay is performed in Greiner 384-well microtiter plates and is used for high throughput screen. 4 μl of PDHK2 (human, rec, Carna Bioscience, 10 ng/μl-137 nM final concentration) and PDC (isolated from porcine heart, Sigma-Aldrich, 20 mU/ml final concentration) are incubated in the absence or presence of the test compound (10 dilution concentrations) for 30 min at room temperature in kinase buffer (15 mM potassium phosphate buffer, pH 7.0, 60 mM KCl, 1.5 mM DTT, 2.5 mM MgCl2, 0.0125% (w/v) BSA, 0.125% Pluronic F-68). The kinase reaction is started by the addition of 4 μl ATP substrate solution (fc 5 μM in kinase buffer). After 30 min incubation at 37° C. 40 μl of PDC reaction solution (100 mM Tris/HCl, pH 7.8, 0.5 mM EDTA, 1 mM MgCl2, 50 mM NaF, 0.25 mM Coenzyme A, 5 mM pyruvate, 1 mM NAD, 5 mM DTT, 1 mM thiamine pyrophosphate) is added. The first fluorescence measurement is performed on a Perkin Elmer Envision (Exc 340 nm, Em 450 nm). The reaction is incubated for 45 min at room temperature. Afterwards a second fluorescence measurement is performed and the PDC activity is calculated by the difference between both measurements. As full value for the PDHK2 assay the inhibitor-free PDHK2 reaction is used. The pharmacological zero value used is DCA (Sigma-Aldrich) in a final concentration of 3 mM. The inhibitory values (IC50) were determined using either the program Symyx Assay Explorer® or Condosseo® from GeneData.

human PDHK2 (12-407) = human PDHK2 (12-407) (Homo sapiens (Human), UniProt Q15119); assay: Isothermal titration calorimetry (ITC) binding; details: 30° C., pH 7.5
Experimental: Isothermal Titration Calorimetry
ITC measurements were performed with a VP-ITC micro calorimeter (Microcal, LLC/GE Healthcare Bio-Sciences AB, Uppsala, Sweden). In general titrations were performed by titrating the protein (50 μM) to the test compound (5 μM) in 12 μl injections. All binding experiments were carried out at 30° C. In general the test compounds were diluted form DMSO stock solutions into the measurement buffer with a maximum final concentration of 1% DMSO. The measurement buffer was 20 mM HEPES, 135 mM KCl, 1 mM TCEP, 2 mM MgCl2, 15 mM NaH2PO4, pH 7.5. The human PDHK2 (12-407) was produced in E. coli as his-tagged protein and purified by affinity chromatography. The tag was removed by side specific proteolysis. Before titration the protein buffer was changed to the measurement buffer containing the same DMSO concentration as the test compound dilution. ITC data analysis was performed using Origin 7 calorimetry software from the same supplier. For most measurements a binding model of one binding site was assumed. According to the applied mathematical model it is possible to calculate the binding constant (KA), the observed binding enthalpy (ΔH^obs) as well as the stoichiometry (N) of the formed complex. Preceding analysis the raw data was corrected for the heats of dilution by extrapolating from the saturation value from the end of titration. In order to allow for direct comparison between the respective experimental series and protein preparations the protein concentration was corrected by referencing titrations to a well behaved standard inhibitor. The apparent stoichiometry values defined the fraction of binding competent protein and compensated for relative errors in protein concentration measurements. This corrected protein concentration was used to set up ITC experiment series with test compounds. Any deviations from ideal 1:1 stoichiometry observed here were attributed to errors in compound concentration. This nominal compound concentration was corrected as well to achieve 1:1 stoichiometry in the fit.

[1] = system: PDH-E1alpha (pSer300) in HEK293T cells; assay: Cellular immunofluorescence assay, PDH-E1alpha (pSer300); format: cell-based; details: Homo sapiens, HEK-293T, 5 hours incubation, read-out: IC50 (cell data)
Experimental: Cellular Assay for Determination of Compound Activities
Compound activities were determined in a cellular immunofluorescence assay. Human HEK293T cells were seeded into black 384-well plates with clear bottom and grown overnight.
Next day, test compounds were added to the wells and the plates incubated for 5 hours. Following this, cells were fixed with formaldehyde, permeabilised and blocked. The primary antibody, Anti-PDH-E1alpha (pSer300), AP1064 (Merck Millipore) was added and incubated overnight in the plate wells. Next, cells were washed and the seconday antibody, Alexa Fluor 488, goat anti-rabbit ab (A-11008, Invitrogen) was added together with Hoechst 33258 (H3569, Invitrogen) and incubated for 1 hour in the plate wells. Finally, cells were washed and the plates were measured on the laser scanning cytometer acumen hci (TTpLabtech).
The raw data were normalized against a pharmacological inhibitor control and dose response curves were generated by plotting the percent effect values using the software package Genedata screener (Genedata).

Structure (SMILES): CC(C)(c1nnc(C2CCCCC2)o1)C1CCN(C(=O)[C@@](C)(O)C(F)(F)F)CC1 [Compound A10, (R)-1-{4-[1-(5-Cyclohexyl-[1,3,4]oxadiazol-2-yl)-1-methyl-ethyl]-piperidin-1-yl}-3,3,3-trifluoro-2-hydroxy-2-methyl-propan-1-one]
- pIC50 (PDHK2): 6.40
- pKd (human PDHK2 (12-407)): 6.92
- pIC50 [1]: 5.70
